Measured values: US4518587A, “Dipeptides of L-5-hydroxytryptophan, processes for their preparation and drugs in which they are present” (S.A. Panmedica, priority 1983, dated 1985)
Like-named read-outs stand apart in the source and are kept apart here. Square brackets hold non-standard residues; d marks the D form. Peptide text beside a SMILES is read from it. * marks the point of attachment. Trp(5-OH) = N[C@@H](Cc1c[nH]c2ccc(O)cc12)C(=O)O; OtBu = CC(C)(C)O*; tBu = CC(C)(C)*

System: brain levels of L-5-hydroxytryptophan (L-5-HTP), serotonin (5-HT) and 5-hydroxyindoleacetic acid (5-HIAA)
Assay: Biochemical analysis of brain levels of L-5-HTP, 5-HT and 5-HIAA one hour after a single dose (technique of CURZON and GREEN)
Assay type: in vivo, rats
Details: for change in vivo at 50 mg/kg / change in vivo at 10 mg/kg / change in vivo at 25 mg/kg: Rattus norvegicus, 1 h; for change in vivo at 10 mg/kg: read-out: %, relative to the controls, of L-5-HTP at dose of 10 mg/kg
Description: Biochemical analysis of the brain levles of L-5-hydroxytryptophan (L-5-HTP), serotonin (5-HT) and its first metabolite, 5-hydroxyindoleacetic acid (5- HIAA), was carried out one hour after the administration of a single dose to adult rats by the technique of CURZON and GREEN. Three doses were studied, i.e. 10, 25 and 50 mg/kg, 10 animals being used per dose. Table I below indicates the percentage increases in 5-HTP, 5-HT and 5-HIAA relative to the levels found in the control animals: […]

[1] = read-out: %, relative to the controls, of 5-HT at dose of 50 mg/kg
[2] = read-out: %, relative to the controls, of L-5-HTP at dose of 25 mg/kg
[3] = read-out: %, relative to the controls, of L-5-HTP at dose of 50 mg/kg
[4] = brain level, adult rats, single dose 10 mg/kg, one hour after administration, percentage increase relative to control animals
[5] = brain level, adult rats, single dose 25 mg/kg, one hour after administration, percentage increase relative to control animals
[6] = read-out: %, relative to the controls, of 5-HIAA at dose of 25 mg/kg
[7] = read-out: %, relative to the controls, of 5-HIAA at dose of 50 mg/kg
[8] = brain level, adult rats, single dose 50 mg/kg, one hour after administration, percentage increase relative to control animals
[9] = brain level, adult rats, single dose 25 mg/kg, one hour after administration, percentage increase relative to control animals, read-out: %, relative to the controls, of 5-HIAA at dose of 25 mg/kg
[10] = brain level, adult rats, single dose 25 mg/kg, one hour after administration, percentage increase relative to control animals, read-out: %, relative to the controls, of L-5-HTP at dose of 25 mg/kg
[11] = brain level, adult rats, single dose 50 mg/kg, one hour after administration, percentage increase relative to control animals, read-out: %, relative to the controls, of 5-HIAA at dose of 50 mg/kg
[12] = brain level, adult rats, single dose 50 mg/kg, one hour after administration, percentage increase relative to control animals, read-out: %, relative to the controls, of 5-HT at dose of 50 mg/kg
[13] = brain level, adult rats, single dose 50 mg/kg, one hour after administration, percentage increase relative to control animals, read-out: %, relative to the controls, of L-5-HTP at dose of 50 mg/kg

Q: For `N[C@@H](Cc1c[nH]c2ccc(O)cc12)C(=O)N[C@@H](CC(=O)O)C(=O)O.O.O.O` [Example 2, 5-Hydroxy-L-tryptophyl-L-aspartic acid trihydrate] (H-[Trp(5-OH)]-Asp-OH), which change in vivo at 50 mg/kg [1] is on record?
A: 10%

Q: And the change in vivo at 10 mg/kg?
A: 200%

Q: And the change in vivo at 25 mg/kg [2]?
A: 600%

Q: And the change in vivo at 50 mg/kg [3]?
A: 1000%

Q: And the “%, relative to the controls, of 5-HT at dose of 10 mg/kg” value [4]?
A: 5%

Q: And the “%, relative to the controls, of 5-HT at dose of 25 mg/kg” value [5]?
A: 5%

Q: Which change in vivo at 25 mg/kg [6] does the source give for `N[C@@H](Cc1c[nH]c2ccc(O)cc12)C(=O)N[C@@H](Cc1ccccc1)C(=O)O` [Example 12, 5-HYDROXY-L-TRYPTOPHYL-L-PHENYLALANINE] (H-[Trp(5-OH)]-Phe-OH) here?
A: 140%

Q: What about the change in vivo at 50 mg/kg [7] of the same molecule?
A: 180%

Q: What about the change in vivo at 50 mg/kg [1] of the same molecule?
A: 25%

Q: What about the change in vivo at 10 mg/kg of the same molecule?
A: 170%

Q: What about the change in vivo at 25 mg/kg [2] of the same molecule?
A: 500%

Q: What does the source list for `COC(=O)[C@H](Cc1ccc(O)cc1)NC(=O)[C@@H](N)Cc1c[nH]c2ccc(O)cc12.Cl` [Example 5, Methyl ester of 5-hydroxy-L-tryptophyl-L-tyrosine hydrochloride] (H-[Trp(5-OH)]-Tyr-OMe)?
A: %, relative to the controls, of 5-HIAA at dose of 10 mg/kg [4]: 55%; %, relative to the controls, of 5-HT at dose of 10 mg/kg [4]: 12%; %, relative to the controls, of L-5-HTP at dose of 10 mg/kg [4]: 200%; %, relative to the controls, of 5-HIAA at dose of 25 mg/kg [5]: 160%; %, relative to the controls, of 5-HT at dose of 25 mg/kg [5]: 10%; %, relative to the controls, of L-5-HTP at dose of 25 mg/kg [5]: 450%; %, relative to the controls, of 5-HIAA at dose of 50 mg/kg [8]: 170%; %, relative to the controls, of 5-HT at dose of 50 mg/kg [8]: 40%; %, relative to the controls, of L-5-HTP at dose of 50 mg/kg [8]: 1200%

Q: `NC(=O)[C@@H](N)Cc1c[nH]c2ccc(O)cc12.O` [Example 21, 5-HYDROXY-L-TRYPT[…], HYDRATE] was tested. Which change in vivo at 25 mg/kg [6] did it give?
A: 50%

Q: What about the change in vivo at 50 mg/kg [7] of the same molecule?
A: 170%

Q: What about the change in vivo at 50 mg/kg [1] of the same molecule?
A: 20%

Q: What about the change in vivo at 10 mg/kg of the same molecule?
A: 125%

Q: And the change in vivo at 25 mg/kg [2]?
A: 250%

Q: And the change in vivo at 50 mg/kg [3]?
A: 700%

Q: How did the change in vivo at 10 mg/kg [4] turn out when `N[C@@H](Cc1c[nH]c2ccc(O)cc12)C(=O)N1CCC[C@H]1C(=O)O` [Example 11, 5-HYDROXY-L-TRYPTOPHYL-L-PROLINE] (H-[Trp(5-OH)]-Pro-OH) was run?
A: 200%

Q: And the change in vivo at 25 mg/kg [9]?
A: 150%

Q: What about the change in vivo at 25 mg/kg [10] of the same molecule?
A: 700%

Q: What about the change in vivo at 50 mg/kg [11] of the same molecule?
A: 300%

Q: And the change in vivo at 50 mg/kg [12]?
A: 20%

Q: And the “%, relative to the controls, of 5-HT at dose of 10 mg/kg” value [4]?
A: 10%

Q: How did the change in vivo at 10 mg/kg [4] turn out when `N[C@@H](Cc1c[nH]c2ccc(O)cc12)C(=O)N[C@@H](Cc1c[nH]c2ccccc12)C(=O)O` [Example 14, 5-Hydroxy-L-tryptophyl-L-tryptophan] (H-[Trp(5-OH)]-Trp-OH) was run?
A: 50%

Q: What about the change in vivo at 25 mg/kg [10] of the same molecule?
A: 100%

Q: What about the change in vivo at 50 mg/kg [12] of the same molecule?
A: 10%

Q: And the change in vivo at 50 mg/kg [13]?
A: 200%

Q: What about the “%, relative to the controls, of 5-HT at dose of 25 mg/kg” value [5] of the same molecule?
A: 12%

Q: How did the change in vivo at 10 mg/kg [4] turn out when `CC(C)C[C@H](NC(=O)[C@@H](N)Cc1c[nH]c2ccc(O)cc12)C(=O)O` [Example 10, 5-HYDROXY-L-TRYPTOPHYL-L-LEUCINE] (H-[Trp(5-OH)]-Leu-OH) was run?
A: 200%

Q: And the change in vivo at 25 mg/kg [9]?
A: 100%

Q: And the change in vivo at 25 mg/kg [10]?
A: 600%

Q: What about the change in vivo at 50 mg/kg [11] of the same molecule?
A: 350%

Q: And the change in vivo at 50 mg/kg [12]?
A: 45%

Q: What about the “%, relative to the controls, of 5-HIAA at dose of 10 mg/kg” value [4] of the same molecule?
A: 55%

Q: What about the “%, relative to the controls, of 5-HT at dose of 25 mg/kg” value [5] of the same molecule?
A: 12%

Q: Which change in vivo at 10 mg/kg [4] does the source give for `CCOC(=O)CC[C@H](NC(=O)[C@@H](N)Cc1c[nH]c2ccc(O)cc12)C(=O)OCC.Cl` [Example 3, Diethyl 5-hydroxy-L-tryptophyl-L-glutamate hydrochloride] (H-[Trp(5-OH)]-Glu(OEt)-OEt) here?
A: 100%

Q: What about the change in vivo at 25 mg/kg [9] of the same molecule?
A: 150%

Q: And the change in vivo at 25 mg/kg [10]?
A: 400%

Q: What about the change in vivo at 50 mg/kg [11] of the same molecule?
A: 200%

Q: What about the change in vivo at 50 mg/kg [12] of the same molecule?
A: 200%

Q: And the “%, relative to the controls, of 5-HIAA at dose of 10 mg/kg” value [4]?
A: 50%

Q: And the “%, relative to the controls, of 5-HT at dose of 10 mg/kg” value [4]?
A: 10%

Q: Which “%, relative to the controls, of 5-HIAA at dose of 10 mg/kg” value [4] does the source give for `COC(=O)[C@H](Cc1c[nH]cn1)NC(=O)[C@@H](N)Cc1c[nH]c2ccc(O)cc12` [Example 22, METHYL ESTER OF 5-HYDROXY-L-TRYPTOPHYL-L-HISTIDINE] (H-[Trp(5-OH)]-His-OMe) here?
A: 40%

Q: And the “%, relative to the controls, of 5-HIAA at dose of 25 mg/kg” value [5]?
A: 140%

Q: What about the “%, relative to the controls, of 5-HT at dose of 25 mg/kg” value [5] of the same molecule?
A: 15%

Q: What about the “%, relative to the controls, of L-5-HTP at dose of 25 mg/kg” value [5] of the same molecule?
A: 200%

Q: What about the “%, relative to the controls, of 5-HIAA at dose of 50 mg/kg” value [8] of the same molecule?
A: 300%

Q: What about the “%, relative to the controls, of 5-HT at dose of 50 mg/kg” value [8] of the same molecule?
A: 15%

Q: What about the “%, relative to the controls, of L-5-HTP at dose of 50 mg/kg” value [8] of the same molecule?
A: 300%

Q: What does the source list for `N[C@@H](Cc1c[nH]c2ccc(O)cc12)C(=O)N[C@@H](CCC(=O)O)C(=O)O` [Example 4, 5-Hydroxy-L-tryptophyl-L-glutamic acid] (H-[Trp(5-OH)]-Glu-OH)?
A: change in vivo at 10 mg/kg [4]: 200%; change in vivo at 25 mg/kg [10]: 550%; change in vivo at 50 mg/kg [12]: 60%; %, relative to the controls, of 5-HT at dose of 10 mg/kg [4]: 5%; %, relative to the controls, of 5-HT at dose of 25 mg/kg [5]: 10%

Q: Which results are given for “5-Hydroxy-L-tryptophyl-5-hydroxy-L-tryptophan hemihydrate [Example 13]”?
A: %, relative to the controls, of 5-HT at dose of 25 mg/kg [5]: 5%; %, relative to the controls, of L-5-HTP at dose of 25 mg/kg [5]: 50%; %, relative to the controls, of 5-HIAA at dose of 50 mg/kg [8]: 10%; %, relative to the controls, of 5-HT at dose of 50 mg/kg [8]: 5%; %, relative to the controls, of L-5-HTP at dose of 50 mg/kg [8]: 50%

Q: For `N[C@@H](Cc1c[nH]c2ccc(O)cc12)C(=O)N[C@@H](CO)C(=O)O` [Example 16, L-5-HYDROXYTRYPTOPHYL-L-SERINE] (H-[Trp(5-OH)]-Ser-OH), which change in vivo at 10 mg/kg [4] is on record?
A: 170%

Q: And the change in vivo at 25 mg/kg [9]?
A: 30%

Q: And the change in vivo at 50 mg/kg [11]?
A: 150%

Q: What about the change in vivo at 50 mg/kg [12] of the same molecule?
A: 15%

Q: What about the change in vivo at 50 mg/kg [13] of the same molecule?
A: 900%

Q: What about the “%, relative to the controls, of 5-HIAA at dose of 10 mg/kg” value [4] of the same molecule?
A: 10%

Q: Which “%, relative to the controls, of L-5-HTP at dose of 10 mg/kg” value [4] does the source give for `CC(C)(C)OC[C@H](NC(=O)[C@@H](N)Cc1c[nH]c2ccc(O)cc12)C(=O)OC(C)(C)C` [Example 15, Tert.-butyl ester of L-5-hydroxytryptophyl-O-tert.-butyl-L-serine] (H-[Trp(5-OH)]-Ser(tBu)-OtBu) here?
A: 200%

Q: What about the “%, relative to the controls, of 5-HIAA at dose of 25 mg/kg” value [5] of the same molecule?
A: 60%

Q: And the “%, relative to the controls, of L-5-HTP at dose of 25 mg/kg” value [5]?
A: 400%

Q: And the “%, relative to the controls, of 5-HIAA at dose of 50 mg/kg” value [8]?
A: 150%

Q: What about the “%, relative to the controls, of L-5-HTP at dose of 50 mg/kg” value [8] of the same molecule?
A: 900%
